What was measured:
[1] = Compound cytotoxicity, XTT-based colorimetric assay; assay type: cell-based; settings: human; uninfected MT2 cells, day 4, XTT; read-out: CC50
How it was run: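 CC50 derived from XTT colorimetric signal measured on day 4 in MT2 cells that were not infected. All other steps followed the antiviral assay protocol.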

[2] = tested on: recombinant NL4-3 virus (nef section replaced with Renilla luciferase gene) in MT-2 cells; assay: HIV cell culture assay (antiviral activity, luciferase readout); assay type: cell-based; settings: Renilla, NL43, MT-2 cells infected for 4-5 days with recombinant NL4-3 Renilla luciferase virus
How it was run: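 Reporter virus is produced in 293T cells and its titer set in MT-2 cells by luciferase activity. MT-2 cells are then infected in the presence of serially diluted compound for 4-5 days. Luciferase is quantified and EC50 fitted to the median effect equation.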

SMILES | CC50 at 4 days [1] | EC50 [2]
CS(=O)(=O)Nc1nn(CCN2CCOCC2)c2c(-n3c([C@H](Cc4cc(F)cc(F)c4)NC(=O)Cn4nc(C5CC5)c5c4C[C@@H]4C[C@H]54)nc4nc(C5CCC(F)(F)CC5)cc(C(F)F)c4c3=O)ccc(Cl)c12 [Example 227, N-[(1S)-1-[(3P)-3-{4-chloro-3-methanesulfonamido-1-[2-(morpholin-4-yl)ethyl]-1H-indazol-7-yl}-7-(4,4-difluorocyclohexyl)-5-(difluoromethyl)-4-oxo-3H,4H-pyrido[2,3-d]pyrimidin-2-yl]-2-(3,5-difluorophenyl)ethyl]-2-[(2S,4S)-9-cyclopropyl-7,8-diazatricyclo[4.3.0.0^2,^4]nona-1(6),8-dien-7-yl]acetamide] | > 50 nM | 0.016 nM
Cc1cc(C2CCC(F)(F)CC2)nc2nc([C@H](Cc3cc(F)cc(F)c3)NC(=O)Cn3nc(C4CC4)c4c3C(F)(F)[C@@H]3C[C@H]43)n(-c3ccc(Cl)c4c(NS(C)(=O)=O)nn(CCN5CCOCC5)c34)c(=O)c12 (atropisomer, axis not shown; (P)) [Example 112, N-[(1S)-1-[(3P)-3-{4-chloro-3-methanesulfonamido-1-[2-(morpholin-4-yl)ethyl]-1H-indazol-7-yl}-7-(4,4-difluorocyclohexyl)-5-methyl-4-oxo-3H,4H-pyrido[2,3-d]pyrimidin-2-yl]-2-(3,5-difluorophenyl)ethyl]-2-[(2S,4R)-9-cyclopropyl-5,5-difluoro-7,8-diazatricyclo[4.3.0.0^2,^4]nona-1(6),8-dien-7-yl]acetamide] | > 50 nM | 0.013 nM
Cc1cc(C2CCC(F)(F)CC2)nc2nc([C@H](Cc3cc(F)cc(F)c3)NC(=O)Cn3nc(C(F)F)c4c3C(F)(F)[C@@H]3C[C@H]43)n(-c3ccc(Cl)c4c(NS(C)(=O)=O)nn(CCN5CCCC5)c34)c(=O)c12 (atropisomer, axis not shown; (P)) [Example 266, N-[(1S)-1-[(3P)-3-{4-chloro-3-methanesulfonamido-1-[2-(pyrrolidin-1-yl)ethyl]-1H-indazol-7-yl}-7-(4,4-difluorocyclohexyl)-5-methyl-4-oxo-3H,4H-pyrido[2,3-d]pyrimidin-2-yl]-2-(3,5-difluorophenyl)ethyl]-2-[(2S,4R)-9-(difluoromethyl)-5,5-difluoro-7,8-diazatricyclo[4.3.0.0^2,^4]nona-1(6),8-dien-7-yl]acetamide] | > 50 nM | 0.034 nM
C[C@@H](CN1C[C@H](F)C[C@H](F)C1)n1nc(NS(C)(=O)=O)c2c(Cl)ccc(-n3c([C@H](Cc4cc(F)cc(F)c4)NC(=O)Cn4nc(C(F)F)c5c4C(F)(F)[C@@H]4C[C@H]54)nc4nc(C5CCC(F)(F)CC5)cc(C5CC5)c4c3=O)c21 (atropisomer, axis not shown; (P)) [Example 735, N-[(1S)-1-[(3P)-3-{4-chloro-1-[(2S)-1-[(3R,5S)-3,5-difluoropiperidin-1-yl]propan-2-yl]-3-methanesulfonamido-1H-indazol-7-yl}-5-cyclopropyl-7-(4,4-difluorocyclohexyl)-4-oxo-3H, 4H-pyrido[2,3-d]pyrimidin-2-yl]-2-(3,5-difluorophenyl)ethyl]-2-[(2S,4R)-9-(difluoromethyl)-5,5-difluoro-7,8-diazatricyclo[4.3.0.0^2,^4]nona-1(6),8-dien-7-yl]acetamide] | > 20 nM | 0.018 nM
C[C@@H]1CN(CCn2nc(NS(C)(=O)=O)c3c(Cl)ccc(-n4c([C@H](Cc5cc(F)cc(F)c5)NC(=O)Cn5nc(C6CC6)c6c5C[C@@H]5C[C@H]65)nc5nc(C6CCC(F)(F)CC6)cc(C6CC6)c5c4=O)c32)C[C@H](C)O1 (atropisomer, axis not shown; (P)) [Example 324, N-[(1S)-1-[(3P)-3-(4-chloro-1-{2-[(2R,6S)-2,6-dimethylmorpholin-4-yl]ethyl}-3-methanesulfonamido-1H-indazol-7-yl)-5-cyclopropyl-7-(4,4-difluorocyclohexyl)-4-oxo-3H,4H-pyrido[2,3-d]pyrimidin-2-yl]-2-(3,5-difluorophenyl)ethyl]-2-[(2S,4S)-9-cyclopropyl-7,8-diazatricyclo[4.3.0.0^2,^4]nona-1(6),8-dien-7-yl]acetamide] | > 50 nM | 0.014 nM
COCCCn1nc(NS(C)(=O)=O)c2c(Cl)ccc(-n3c([C@H](Cc4cc(F)cc(F)c4)NC(=O)Cn4nc(C(F)F)c5c4C(F)(F)[C@@H]4C[C@H]54)nc4nc(C5CCC(F)(F)CC5)cc(NCCN(C)C)c4c3=O)c21 (atropisomer, axis not shown; (P)) [Example 522, N-[(1S)-1-[(3P)-3-[4-chloro-3-methanesulfonamido-1-(3-methoxypropyl)-1H-indazol-7-yl]-7-(4,4-difluorocyclohexyl)-5-{[2-(dimethylamino)ethyl]amino}-4-oxo-3H,4H-pyrido[2,3-d]pyrimidin-2-yl]-2-(3,5-difluorophenyl)ethyl]-2-[(2S,4R)-9-(difluoromethyl)-5,5-difluoro-7,8-diazatricyclo[4.3.0.0^2,^4]nona-1(6),8-dien-7-yl]acetamide] | > 20 nM | 0.014 nM
Cc1cc(C2(F)CCC(F)(F)CC2)nc2nc([C@H](Cc3cc(F)cc(F)c3)NC(=O)Cn3nc(C4CC4)c4c3C[C@@H]3C[C@H]43)n(-c3ccc(Cl)c4c(NS(C)(=O)=O)nn(C[C@@H](C)N5C[C@@H](C)O[C@@H](C)C5)c34)c(=O)c12 (relative stereo) [Example 723, N-[(1S)-1-[(3P)-3-{4-chloro-1-[(2R)-2-[(2R,6S)-2,6-dimethylmorpholin-4-yl]propyl]-3-methanesulfonamido-1H-indazol-7-yl}-5-methyl-4-oxo-7-(1,4,4-trifluorocyclohexyl)-3H,4H-pyrido[2,3-d]pyrimidin-2-yl]-2-(3,5-difluorophenyl)ethyl]-2-[(2R*,4R*)-9-cyclopropyl-7,8-diazatricyclo[4.3.0.0^2,^4]nona-1(6),8-dien-7-yl]acetamide] | > 20 nM | 0.012 nM
COCCCn1nc(NS(C)(=O)=O)c2c(Cl)ccc(-n3c([C@H](Cc4cc(F)cc(F)c4)NC(=O)Cn4nc(C(F)F)c5c4C(F)(F)[C@@H]4C[C@H]54)nc4nc(C5CCC(F)(F)CC5)cc(NCCNC(C)=O)c4c3=O)c21 (atropisomer, axis not shown; (P)) [Example 432, N-[(1S)-1-[(3P)-3-[4-chloro-3-methanesulfonamido-1-(3-methoxypropyl)-1H-indazol-7-yl]-7-(4,4-difluorocyclohexyl)-5-[(2-acetamidoethyl)amino]-4-oxo-3H,4H-pyrido[2,3-d]pyrimidin-2-yl]-2-(3,5-difluorophenyl)ethyl]-2-[(2S,4R)-9-(difluoromethyl)-5,5-difluoro-7,8-diazatricyclo[4.3.0.0^2,^4]nona-1(6),8-dien-7-yl]acetamide] | > 20 nM | 0.182 nM

Source: patent US12594276B2, “Inhibitors of human immunodeficiency virus replication” (ViiV Healthcare UK (No.5) Limited, priority 2024, dated 2026)
